The source made the active and inactive calls.
Assays:
[1] = target: T1, Integrin beta-3 (Homo sapiens) (UniProt P05106); experiment: Inhibition of integrin beta-3 in human MDA-MB-231 cells assessed as decrease in sialylation level incubated for 48 hrs by Western blot analysis; assay type: cell-based; settings: dose 20-80 µM
T1 sequence (whole entry): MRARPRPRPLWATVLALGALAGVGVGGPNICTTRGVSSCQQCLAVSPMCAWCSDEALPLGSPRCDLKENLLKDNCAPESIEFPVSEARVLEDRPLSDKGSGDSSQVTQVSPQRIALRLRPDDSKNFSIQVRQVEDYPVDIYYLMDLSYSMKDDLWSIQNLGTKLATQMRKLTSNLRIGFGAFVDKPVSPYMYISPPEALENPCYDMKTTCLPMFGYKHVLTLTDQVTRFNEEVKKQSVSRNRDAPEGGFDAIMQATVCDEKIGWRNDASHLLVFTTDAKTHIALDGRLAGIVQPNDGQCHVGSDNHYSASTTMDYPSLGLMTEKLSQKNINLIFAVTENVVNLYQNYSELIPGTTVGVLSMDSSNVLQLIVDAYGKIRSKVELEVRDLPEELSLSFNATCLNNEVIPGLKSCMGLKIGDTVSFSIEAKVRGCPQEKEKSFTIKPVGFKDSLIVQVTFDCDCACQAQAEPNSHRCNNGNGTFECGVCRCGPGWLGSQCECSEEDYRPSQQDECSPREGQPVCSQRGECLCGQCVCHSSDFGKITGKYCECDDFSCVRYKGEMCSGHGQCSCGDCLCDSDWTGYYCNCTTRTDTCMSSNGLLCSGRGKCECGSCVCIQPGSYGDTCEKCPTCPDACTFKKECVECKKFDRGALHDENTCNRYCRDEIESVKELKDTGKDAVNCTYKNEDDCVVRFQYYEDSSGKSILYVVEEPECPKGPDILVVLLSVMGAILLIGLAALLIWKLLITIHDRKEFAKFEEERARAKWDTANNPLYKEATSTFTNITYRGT

MDA-MB-231 [2] = experiment: Antimigratory activity against human MDA-MB-231 cells at 60 uM incubated for 16 hrs by transwell migration assay; assay type: functional, cell-based
Paxillin (Homo sapiens) [3] = target: Paxillin (Homo sapiens) (UniProt P49023); experiment: Inhibition of paxillin phosphorylation at Y118 residue in human MDA-MB-231 cells incubated for 2 hrs by Western blot analysis; assay type: cell-based; settings: dose 20-80 µM
Paxillin (Homo sapiens), sequence (P49023 whole entry): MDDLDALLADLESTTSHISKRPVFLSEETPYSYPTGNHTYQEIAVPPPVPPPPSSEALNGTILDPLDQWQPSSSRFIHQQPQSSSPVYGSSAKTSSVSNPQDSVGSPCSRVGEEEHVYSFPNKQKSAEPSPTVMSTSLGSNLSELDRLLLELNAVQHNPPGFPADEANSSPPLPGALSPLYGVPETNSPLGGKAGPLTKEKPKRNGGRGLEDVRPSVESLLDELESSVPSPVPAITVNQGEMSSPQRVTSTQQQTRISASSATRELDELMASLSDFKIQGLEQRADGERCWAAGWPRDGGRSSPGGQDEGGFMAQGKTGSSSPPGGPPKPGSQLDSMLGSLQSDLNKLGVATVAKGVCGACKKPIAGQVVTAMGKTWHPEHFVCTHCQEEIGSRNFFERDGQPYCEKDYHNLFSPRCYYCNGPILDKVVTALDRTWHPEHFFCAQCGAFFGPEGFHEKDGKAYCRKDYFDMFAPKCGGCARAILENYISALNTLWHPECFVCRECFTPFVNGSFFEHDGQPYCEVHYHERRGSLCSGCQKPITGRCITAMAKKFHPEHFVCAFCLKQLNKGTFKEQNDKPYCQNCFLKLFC

[4] = target: Integrin alpha-V (Homo sapiens) (UniProt P06756); experiment: Inhibition of integrin alpha-v in human MDA-MB-231 cells assessed as decrease in sialylation level incubated for 48 hrs by Western blot analysis; assay type: cell-based; settings: dose 20-80 µM
Integrin alpha-V (Homo sapiens), sequence (P06756 31-889 limits assumed): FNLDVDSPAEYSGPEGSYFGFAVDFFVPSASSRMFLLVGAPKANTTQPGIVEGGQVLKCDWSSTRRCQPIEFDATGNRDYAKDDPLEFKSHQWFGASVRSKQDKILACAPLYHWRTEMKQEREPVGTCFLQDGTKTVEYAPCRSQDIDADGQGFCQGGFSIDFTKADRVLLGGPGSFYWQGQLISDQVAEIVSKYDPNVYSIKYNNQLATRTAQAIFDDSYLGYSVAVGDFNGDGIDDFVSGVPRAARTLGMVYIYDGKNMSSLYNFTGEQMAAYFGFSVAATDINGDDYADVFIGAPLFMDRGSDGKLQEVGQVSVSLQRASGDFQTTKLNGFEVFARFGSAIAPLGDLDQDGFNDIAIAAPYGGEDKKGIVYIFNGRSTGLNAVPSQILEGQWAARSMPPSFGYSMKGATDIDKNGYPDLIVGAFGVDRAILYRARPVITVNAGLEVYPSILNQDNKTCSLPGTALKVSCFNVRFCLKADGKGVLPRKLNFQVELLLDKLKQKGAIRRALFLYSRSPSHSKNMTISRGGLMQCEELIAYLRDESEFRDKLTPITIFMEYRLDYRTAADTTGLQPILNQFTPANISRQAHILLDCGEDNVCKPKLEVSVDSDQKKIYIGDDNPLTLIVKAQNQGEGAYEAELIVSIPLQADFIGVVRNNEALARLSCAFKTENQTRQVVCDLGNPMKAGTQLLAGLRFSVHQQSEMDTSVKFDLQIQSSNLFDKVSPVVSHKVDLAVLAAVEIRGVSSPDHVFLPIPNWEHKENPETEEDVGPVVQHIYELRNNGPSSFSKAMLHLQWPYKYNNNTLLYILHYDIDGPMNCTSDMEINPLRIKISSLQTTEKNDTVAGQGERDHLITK
Integrin alpha-V (Homo sapiens), sequence (P06756 891-1048 limits assumed): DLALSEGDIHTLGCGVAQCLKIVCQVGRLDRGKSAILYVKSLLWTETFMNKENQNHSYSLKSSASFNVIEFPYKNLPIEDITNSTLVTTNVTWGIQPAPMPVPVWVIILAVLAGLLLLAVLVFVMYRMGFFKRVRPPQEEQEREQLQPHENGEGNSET

[5] = target: T2, Sialyltransferase ST3Gal-I (Rattus norvegicus) (UniProt Q6H8N0); experiment: Inhibition of rat ST3GAL1 at 1000 uM by UPLC-based assay relative to control
T2 sequence (whole entry): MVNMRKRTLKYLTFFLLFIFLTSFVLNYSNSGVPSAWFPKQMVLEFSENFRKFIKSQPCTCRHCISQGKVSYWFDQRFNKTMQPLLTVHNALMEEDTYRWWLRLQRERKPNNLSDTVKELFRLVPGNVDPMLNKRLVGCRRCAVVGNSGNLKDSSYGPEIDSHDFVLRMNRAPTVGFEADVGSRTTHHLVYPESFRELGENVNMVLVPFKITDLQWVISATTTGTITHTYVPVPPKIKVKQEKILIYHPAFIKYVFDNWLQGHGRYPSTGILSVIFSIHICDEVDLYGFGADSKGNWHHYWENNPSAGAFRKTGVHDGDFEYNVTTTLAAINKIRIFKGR

[6] = target: Integrin beta-1 (Homo sapiens) (UniProt P05556); experiment: Inhibition of integrin beta-1 in human MDA-MB-231 cells assessed as decrease in sialylation level incubated for 48 hrs by Western blot analysis; assay type: cell-based; settings: dose 20-80 µM
Integrin beta-1 (Homo sapiens), sequence (P05556 whole entry): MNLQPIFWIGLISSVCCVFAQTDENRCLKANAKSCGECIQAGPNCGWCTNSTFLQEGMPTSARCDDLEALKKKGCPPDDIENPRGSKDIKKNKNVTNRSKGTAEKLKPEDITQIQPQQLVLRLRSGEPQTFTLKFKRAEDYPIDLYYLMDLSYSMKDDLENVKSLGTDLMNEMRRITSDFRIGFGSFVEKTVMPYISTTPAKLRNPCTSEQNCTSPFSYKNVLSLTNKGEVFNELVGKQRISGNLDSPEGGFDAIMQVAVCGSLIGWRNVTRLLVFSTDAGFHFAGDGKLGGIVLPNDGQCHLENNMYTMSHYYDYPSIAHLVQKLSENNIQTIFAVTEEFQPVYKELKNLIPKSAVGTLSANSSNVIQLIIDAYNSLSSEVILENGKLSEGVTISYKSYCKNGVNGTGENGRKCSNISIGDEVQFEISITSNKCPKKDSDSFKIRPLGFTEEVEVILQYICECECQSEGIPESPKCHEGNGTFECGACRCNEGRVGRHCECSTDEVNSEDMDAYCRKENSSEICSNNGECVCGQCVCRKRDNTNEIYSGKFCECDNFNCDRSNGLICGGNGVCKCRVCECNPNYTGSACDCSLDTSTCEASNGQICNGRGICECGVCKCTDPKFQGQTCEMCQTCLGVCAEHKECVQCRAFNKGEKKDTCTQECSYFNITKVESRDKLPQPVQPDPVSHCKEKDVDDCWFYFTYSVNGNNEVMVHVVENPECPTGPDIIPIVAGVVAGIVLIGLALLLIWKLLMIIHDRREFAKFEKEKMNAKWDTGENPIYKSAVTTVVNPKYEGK

[7] = target: Integrin beta-4 (Homo sapiens) (UniProt P16144); experiment: Inhibition of integrin beta-4 in human MDA-MB-231 cells assessed as decrease in sialylation level incubated for 48 hrs by Western blot analysis; assay type: cell-based; settings: dose 20-80 µM
Integrin beta-4 (Homo sapiens), sequence (P16144 whole entry): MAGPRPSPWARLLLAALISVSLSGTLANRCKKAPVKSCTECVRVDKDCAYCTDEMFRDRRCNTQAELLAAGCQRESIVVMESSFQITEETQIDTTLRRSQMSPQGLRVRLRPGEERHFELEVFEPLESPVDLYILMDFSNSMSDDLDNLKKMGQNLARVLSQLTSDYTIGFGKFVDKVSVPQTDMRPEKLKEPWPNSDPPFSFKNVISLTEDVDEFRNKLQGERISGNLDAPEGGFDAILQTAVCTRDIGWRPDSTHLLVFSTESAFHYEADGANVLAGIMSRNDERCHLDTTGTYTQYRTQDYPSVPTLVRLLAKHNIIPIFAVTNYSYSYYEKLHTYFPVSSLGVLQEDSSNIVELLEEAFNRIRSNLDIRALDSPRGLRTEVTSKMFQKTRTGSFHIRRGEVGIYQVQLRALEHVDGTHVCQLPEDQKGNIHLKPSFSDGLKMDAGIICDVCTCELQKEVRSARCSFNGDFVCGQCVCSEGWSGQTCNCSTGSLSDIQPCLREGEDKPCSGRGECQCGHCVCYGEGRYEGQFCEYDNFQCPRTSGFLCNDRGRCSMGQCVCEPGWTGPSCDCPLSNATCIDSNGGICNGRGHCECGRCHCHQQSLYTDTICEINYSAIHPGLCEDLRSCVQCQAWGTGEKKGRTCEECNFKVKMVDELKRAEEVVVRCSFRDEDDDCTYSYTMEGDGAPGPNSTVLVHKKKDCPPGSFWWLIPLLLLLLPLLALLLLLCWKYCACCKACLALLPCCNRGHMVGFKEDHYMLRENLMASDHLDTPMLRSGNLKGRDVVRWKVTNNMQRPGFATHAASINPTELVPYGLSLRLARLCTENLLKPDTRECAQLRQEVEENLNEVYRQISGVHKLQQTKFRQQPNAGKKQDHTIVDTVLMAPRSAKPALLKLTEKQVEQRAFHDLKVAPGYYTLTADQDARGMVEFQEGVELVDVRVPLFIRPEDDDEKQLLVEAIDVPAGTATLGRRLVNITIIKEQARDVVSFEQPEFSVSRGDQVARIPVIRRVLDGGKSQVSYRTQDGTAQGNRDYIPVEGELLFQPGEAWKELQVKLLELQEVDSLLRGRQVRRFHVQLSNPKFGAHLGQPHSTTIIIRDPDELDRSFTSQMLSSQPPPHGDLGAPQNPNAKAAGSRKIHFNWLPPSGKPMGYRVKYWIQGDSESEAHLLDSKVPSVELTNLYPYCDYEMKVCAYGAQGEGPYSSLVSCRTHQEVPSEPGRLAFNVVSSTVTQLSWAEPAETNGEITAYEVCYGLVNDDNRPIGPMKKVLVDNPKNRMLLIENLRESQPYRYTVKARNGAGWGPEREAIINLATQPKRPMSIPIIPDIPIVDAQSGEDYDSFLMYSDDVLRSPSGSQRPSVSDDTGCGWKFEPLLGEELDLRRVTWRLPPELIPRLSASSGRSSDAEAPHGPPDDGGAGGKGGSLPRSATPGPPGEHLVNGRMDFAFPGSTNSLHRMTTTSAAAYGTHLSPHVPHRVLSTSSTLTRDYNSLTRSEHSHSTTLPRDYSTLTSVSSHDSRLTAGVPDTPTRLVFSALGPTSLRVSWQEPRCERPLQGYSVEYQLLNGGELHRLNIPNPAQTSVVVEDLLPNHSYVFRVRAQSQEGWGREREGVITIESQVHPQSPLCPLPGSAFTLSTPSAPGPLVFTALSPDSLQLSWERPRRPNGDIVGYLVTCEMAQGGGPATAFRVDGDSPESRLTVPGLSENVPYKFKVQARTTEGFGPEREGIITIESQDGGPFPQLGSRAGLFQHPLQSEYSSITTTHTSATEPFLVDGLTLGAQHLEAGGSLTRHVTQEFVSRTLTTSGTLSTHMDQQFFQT

Paxillin (Homo sapiens) [8] = target: Paxillin (Homo sapiens) (UniProt P49023); experiment: Inhibition of paxillin phosphorylation at Y118 residue in human MDA-MB-231 cells at 80 uM incubated for 2 hrs by Western blot analysis; assay type: cell-based
MDA-MB-231 [9] = experiment: Inhibition of cell invasion in human MDA-MB-231 cells at 60 uM; assay type: functional, cell-based
[10] = target: T3, Integrin beta-5 (Homo sapiens) (UniProt P18084); experiment: Inhibition of integrin beta-5 in human MDA-MB-231 cells assessed as decrease in sialylation level incubated for 48 hrs by Western blot analysis; assay type: cell-based; settings: dose 20-80 µM
T3 sequence (whole entry): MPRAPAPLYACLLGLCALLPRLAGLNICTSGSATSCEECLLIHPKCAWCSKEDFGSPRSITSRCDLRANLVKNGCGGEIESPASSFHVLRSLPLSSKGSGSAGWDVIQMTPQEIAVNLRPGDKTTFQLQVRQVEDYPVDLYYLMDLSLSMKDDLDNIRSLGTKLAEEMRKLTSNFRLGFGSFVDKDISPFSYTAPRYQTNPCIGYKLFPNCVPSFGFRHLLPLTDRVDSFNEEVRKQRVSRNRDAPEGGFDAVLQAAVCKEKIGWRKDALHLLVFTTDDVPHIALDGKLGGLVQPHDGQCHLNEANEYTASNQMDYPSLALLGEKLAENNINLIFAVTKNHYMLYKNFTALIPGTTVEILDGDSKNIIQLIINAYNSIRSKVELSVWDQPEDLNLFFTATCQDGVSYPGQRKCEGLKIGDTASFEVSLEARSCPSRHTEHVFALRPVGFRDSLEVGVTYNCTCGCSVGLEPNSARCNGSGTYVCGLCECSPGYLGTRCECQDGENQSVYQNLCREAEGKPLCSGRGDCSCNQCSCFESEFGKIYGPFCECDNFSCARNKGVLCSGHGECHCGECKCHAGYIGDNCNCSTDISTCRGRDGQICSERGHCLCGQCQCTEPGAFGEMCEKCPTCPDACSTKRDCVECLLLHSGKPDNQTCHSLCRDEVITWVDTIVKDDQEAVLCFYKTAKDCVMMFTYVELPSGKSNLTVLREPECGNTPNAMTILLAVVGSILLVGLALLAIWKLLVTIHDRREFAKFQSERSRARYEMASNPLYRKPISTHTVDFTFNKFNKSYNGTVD

MDA-MB-231 [11] = experiment: Effect on total paxillin expression level in human MDA-MB-231 cells at 20 to 80 uM incubated for 2 hrs by Western blot analysis; assay type: functional, cell-based; settings: dose 20-80 µM

C[C@H](CCCOS(=O)(=O)O)[C@H]1CC[C@H]2[C@@H]3CC[C@@H]4C[C@H](O)CC[C@]4(C)[C@H]3CC[C@]12C
active: Activity [1] Dose-Dependent Effect | Activity (MDA-MB-231 [2]) | inhibition (Paxillin (Homo sapiens) [3]) Dose-Dependent Effect | Activity [4] Dose-Dependent Effect | Activity [6] Dose-Dependent Effect | Activity [7] Dose-Dependent Effect | inhibition (Paxillin (Homo sapiens) [8]) | inhibition (MDA-MB-231 [9]) | Activity [10] Dose-Dependent Effect
inactive: Activity (MDA-MB-231 [11])
15%: inhibition [5]
